These results are taken from US11180462B2, “Microbiocidal oxadiazole derivatives” (SYNGENTA PARTICIPATIONS AG, priority 2015, dated 2021).

Where only a bound is given, the exact number is not on record here.

Series [1] relates to Puccinia recondita f. Sp. Tritici. The experiment in a line: Fungicidal activity against Puccinia recondita f. sp. tritici / wheat / leaf disc preventative (brown rust). The format is in vivo. The following applies: foliar, 200 ppm in the applied formulation, wheat leaf segments, preventative, compared to untreated control leaf disks, read-out: disease control. A digest of the protocol:
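Preventative leaf-segment test, wheat cv. Kanzler on water agar. Spray compound at 200 ppm, inoculate with spores 1 day later; 19° C., 75% rh, 12/12 h light. Read-out: % disease control vs untreated, 7 to 9 days after application.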

The subject of series [2] is Glomerella lagenarium (Colletotrichum lagenarium). The experiment in a line: Fungicidal activity against Glomerella lagenarium (Colletotrichum lagenarium) liquid culture / cucumber / preventative (anthracnose). The format is cell-based. The settings on record: Colletotrichum orbiculare; 20 ppm in the applied formulation; liquid culture (PDB), growth inhibition measured photometrically after 3 to 4 days; compared to untreated control; read-out: disease control. The procedure, abridged:
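Photometric read-out of fungal growth after 2–7 days, expressed as percent antifungal activity versus untreated check. Cryo-stored conidia in PDB; compound at 20 ppm; dark, 24 °C, 96% RH.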

A further series relates to Phakopsora Pachyrhizi. The series can be described thus: Fungicidal activity against Phakopsora pachyrhizi / soybean / leaf disc preventative (Asian soybean rust). It counts as in vivo. The following applies: foliar, 200 ppm in the applied formulation, soybean leaf disks, compared to untreated control leaf disks, read-out: disease control. The procedure, abridged: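 Preventative soybean leaf-disc test: discs on water agar sprayed with diluted formulated compound, inoculated one day later with spores on the lower surface. Held 24–36 h dark at 20°C, 75% rh, then 12 h light/day; percent disease control versus untreated discs scored 12–14 days after application.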

Series [3] concerns Puccinia recondita f. Sp. Tritici. The series can be described thus: Fungicidal activity against Puccinia recondita f. sp. tritici / wheat / leaf disc curative (brown rust). It counts as in vivo. The following applies: foliar, 24 h, 200 ppm in the applied formulation, wheat leaf segments, curative (applied 1 day after inoculation), compared to untreated control leaf disks, read-out: disease control. A digest of the protocol:
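Segments of wheat cv. Kanzler were laid on agar and inoculated with a spore suspension of the rust, then held in darkness at 19° C and 75% relative humidity. One day later the water-diluted formulated compound was applied, with incubation continued under a 12 h light/dark cycle.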

As a reminder, the melting point is the temperature, or range, at which the solid turns liquid. `CCONC(=O)N(Cc1ccc(-c2noc(C(F)(F)F)n2)cc1)OC` [Compound 3.18, 3-ethoxy-1-methoxy-1-[[4-[5-(trifluoromethyl)-1,2,4-oxadiazol-3-yl]phenyl]methyl]urea] displayed a melting point of 107 to 110 °C. Moreover, the pest or weed control at 200 ppm in series [1] was at least 80%. In addition, in series [2], the inhibition of growth at 20 ppm is at least 80%. Also, in the series with Phakopsora Pachyrhizi, the pest or weed control at 200 ppm was at least 80%. For the same compound, in series [3], the pest or weed control at 200 ppm was at least 80%.

Turning to `CON(Cc1ccc(-c2noc(C(F)(F)F)n2)cc1)C(=O)CNC(=O)OC(C)(C)C` [Compound 1.787, tert-butyl N-[2-(methoxy-[[4-[5-(trifluoromethyl)-1,2,4-oxadiazol-3-yl]phenyl]methyl]-amino]-2-oxo-ethyl]carbamate], the melting point was 80 to 83.1 °C. Moreover, the pest or weed control at 200 ppm in series [1] is at least 80%. For the same compound, the inhibition of growth at 20 ppm in series [2] is at least 80%. Moreover, in series [3], the pest or weed control at 200 ppm is at least 80%.

Compound `CON(Cc1ccc(-c2noc(C(F)(F)F)n2)cn1)C(=O)c1ccccc1Cl` [Compound 1.572, 2-chloro-N-methoxy-N-[[5-[5-(trifluoromethyl)-1,2,4-oxadiazol-3-yl]-2-pyridyl]methyl]-benzamide] returned a melting point of 80 to 89 °C. Besides, in series [1], the pest or weed control at 200 ppm was at least 80%. Also, the inhibition of growth at 20 ppm in series [2] is at least 80%.

`CON(Cc1ccc(-c2noc(C(F)(F)F)n2)cc1)C(=O)NCC1(O)CC1` [Compound 3.54, 3-[(1-hydroxycyclopropyl)-methyl]-1-methoxy-1-[[4-[5-(trifluoromethyl)-1,2,4-oxadiazol-3-yl]phenyl]methyl]urea] registered a melting point of 107 to 110 °C. Moreover, the pest or weed control at 200 ppm in series [1] is at least 80%. The inhibition of growth at 20 ppm in series [2] is at least 80%. The pest or weed control at 200 ppm in series [3] was at least 80%.

Consider `CCC(=O)NC(C(=O)N(Cc1ccc(-c2noc(C(F)(F)F)n2)cc1)OC)C(C)C` (centres unmarked) [Compound 1.802, N-methoxy-3-methyl-2-(propanoylamino)-N-[[4-[5-(trifluoromethyl)-1,2,4-oxadiazol-3-yl]phenyl]methyl]-butanamide], for which the melting point fell in the range of 98.5 to 100.6 °C.

`CON(Cc1ccc(-c2noc(C(F)(F)F)n2)cc1)C(=O)CNC(C)=O` [Compound 1.794, 2-acetamido-N-methoxy-N-[[4-[5-(trifluoromethyl)-1,2,4-oxadiazol-3-yl]phenyl]methyl]-acetamide] showed a melting point of 132.8 to 134.9 °C. In series [1], the pest or weed control at 200 ppm is at least 80%. The inhibition of growth at 20 ppm in series [2] is at least 80%. Further, the pest or weed control at 200 ppm in series [3] was at least 80%.

The compound `CON(Cc1ccc(-c2noc(C(F)(F)F)n2)cc1)C(=O)NCC1CC1(F)F` (centres unmarked) [Compound 3.103, 3-[(2,2-difluorocyclopropyl)-methyl]-1-methoxy-1-[[4-[5-(trifluoromethyl)-1,2,4-oxadiazol-3-yl]phenyl]methyl]urea] showed a melting point of 81 to 84 °C. The pest or weed control at 200 ppm in series [1] is at least 80%. Further, the inhibition of growth at 20 ppm in series [2] is at least 80%. Moreover, in series [3], the pest or weed control at 200 ppm was at least 80%.

The compound `CCON(Cc1ccc(-c2noc(C(F)(F)F)n2)cc1)C(=O)OC` [Compound 2.5, methyl N-ethoxy-N-[[4-[5-(trifluoromethyl)-1,2,4-oxadiazol-3-yl]phenyl]methyl]-carbamate] displayed a melting point of 50.6 to 53 °C. Further, the inhibition of growth at 20 ppm in series [2] is at least 80%. For the same compound, the pest or weed control at 200 ppm with Phakopsora Pachyrhizi is at least 80%. In addition, the pest or weed control at 200 ppm in series [3] is at least 80%.

Compound `CN(Cc1ccc(-c2noc(C(F)(F)F)n2)cc1)C(=O)CO` [Compound 1.593, 2-hydroxy-N-methyl-N-[[4-[5-(trifluoromethyl)-1,2,4-oxadiazol-3-yl]phenyl]methyl]-acetamide] showed a melting point of 54 to 60 °C. Further, the pest or weed control at 200 ppm in series [1] is at least 80%. For the same compound, the inhibition of growth at 20 ppm in series [2] was at least 80%. Besides, in series [3], the pest or weed control at 200 ppm was at least 80%.

Compound `CON(Cc1ccc(-c2noc(C(F)(F)F)n2)cc1)C(=O)Cn1cncn1` [Compound 1.808, N-methoxy-2-(1,2,4-triazol-1-yl)-N-[[4-[5-(trifluoromethyl)-1,2,4-oxadiazol-3-yl]phenyl]methyl]-acetamide] registered a melting point of 125.1 to 127.2 °C.

`CON(Cc1ccc(-c2noc(C(F)(F)F)n2)cc1)C(=O)CNC(=O)C1CC1` [Compound 1.790, N-[2-[methoxy-[[4-[5-(trifluoro-methyl)-1,2,4-oxadiazol-3-yl]phenyl]methyl]-amino]-2-oxo-ethyl]-cyclopropane-carboxamide]: the melting point lay within 135.9 to 138.5 °C. Also, the pest or weed control at 200 ppm in series [1] is at least 80%. Moreover, the inhibition of growth at 20 ppm in series [2] was at least 80%. Besides, in series [3], the pest or weed control at 200 ppm is at least 80%.

Take `CON(Cc1ccc(-c2noc(C(F)(F)F)n2)cc1)C(=O)C1CCCN1.Cl` (centres unmarked): the melting point is 185.5 to 188.5 °C.

Compound `CON(Cc1ccc(-c2noc(C(F)(F)F)n2)cc1)C(=O)C(C)N.Cl` (centres unmarked) [Compound 1.792, [2-[methoxy-[[4-[5-(trifluoromethyl)-1,2,4-oxadiazol-3-yl]phenyl]methyl]-amino]-1-methyl-2-oxo-ethyl]ammonium; chloride] had a melting point of 200.7 to 203.2 °C. Besides, the pest or weed control at 200 ppm in series [1] was at least 80%. For the same compound, in series [3], the pest or weed control at 200 ppm was at least 80%.

Take `CCOC(=O)c1cnn(CC(=O)N(Cc2ccc(-c3noc(C(F)(F)F)n3)cc2)OC)c1` [Compound 1.807, ethyl 1-[2-[methoxy-[[4-[5-(trifluoromethyl)-1,2,4-oxadiazol-3-yl]phenyl]methyl]-amino]-2-oxo-ethyl]pyrazole-4-carboxylate]: the melting point was 79.1 to 80.4 °C.

Compound `CNC(=O)N(Cc1ccc(-c2noc(C(F)(F)F)n2)cc1)C1CC1` [Compound 3.35, 1-cyclopropyl-3-methyl-1-[[4-[5-(trifluoromethyl)-1,2,4-oxadiazol-3-yl]phenyl]methyl]urea] had a melting point of 113 to 114 °C. Moreover, the pest or weed control at 200 ppm in series [1] was at least 80%. Besides, the inhibition of growth at 20 ppm in series [2] was at least 80%.

Compound `CON(Cc1ccc(-c2noc(C(F)(F)F)n2)c(F)c1)C(=O)c1ccccc1Cl` [Compound 1.581, 2-chloro-N-[[3-fluoro-4-[5-(trifluoromethyl)-1,2,4-oxadiazol-3-yl]phenyl]methyl]-N-methoxy-benzamide] displayed a melting point of 89 to 95 °C. Besides, the pest or weed control at 200 ppm in series [1] was at least 80%. The inhibition of growth at 20 ppm in series [2] was at least 80%. Further, in the series with Phakopsora Pachyrhizi, the pest or weed control at 200 ppm is at least 80%.

`CON(Cc1ccc(-c2noc(C(F)(F)F)n2)cc1)C(=O)/C=C/c1ccccc1` [Compound 1.5, (E)-N-methoxy-3-phenyl-N-[[4-[5-(trifluoromethyl)-1,2,4-oxadiazol-3-yl]phenyl]methyl]-prop-2-enamide] registered a melting point of 94 to 99 °C. Besides, the inhibition of growth at 20 ppm in series [2] was at least 80%. In the series with Phakopsora Pachyrhizi, the pest or weed control at 200 ppm is at least 80%.

`CON(Cc1ccc(-c2noc(C(F)(F)F)n2)cc1)C(=O)C(C)NC(=O)OC(C)(C)C` (centres unmarked) [Compound 1.791, tert-butyl N-[2-(methoxy-[[4-[5-(trifluoromethyl)-1,2,4-oxadiazol-3-yl]phenyl]methyl]-amino]-1-methyl-2-oxo-ethyl]carbamate] gave a melting point of 108.8 to 111.9 °C. Besides, the pest or weed control at 200 ppm in series [1] was at least 80%. Also, the inhibition of growth at 20 ppm in series [2] is at least 80%. Further, in series [3], the pest or weed control at 200 ppm was at least 80%.

As to `CON(Cc1ccc(-c2noc(C(F)(F)F)n2)cc1)C(=O)C(C)NC(=O)C1CC1` (centres unmarked) [Compound 1.798, N-[2-(methoxy-[[4-[5-(trifluoromethyl)-1,2,4-oxadiazol-3-yl]phenyl]methyl]-amino]-1-methyl-2-oxo-ethyl]-cyclopropane-carboxamide], the melting point was in the range of 129.7 to 134 °C.

Regarding `CNC(=O)CNC(=O)N(Cc1ccc(-c2noc(C(F)(F)F)n2)cc1)OC` [Compound 3.50, 2-[[methoxy-[[4-[5-(trifluoromethyl)-1,2,4-oxadiazol-3-yl]phenyl]methyl]-carbamoyl]amino]-N-methyl-acetamide], the melting point lay within 126 to 130 °C. In addition, the pest or weed control at 200 ppm in series [1] is at least 80%. The pest or weed control at 200 ppm in series [3] is at least 80%.

`CCC(=O)NCC(=O)N(Cc1ccc(-c2noc(C(F)(F)F)n2)cc1)OC` [Compound 1.793, N-[2-[methoxy-[[4-[5-(trifluoromethyl)-1,2,4-oxadiazol-3-yl]phenyl]methyl]-amino]-2-oxo-ethyl]propanamide] displayed a melting point of 115.3 to 117.8 °C. Moreover, in series [1], the pest or weed control at 200 ppm is at least 80%. Also, the inhibition of growth at 20 ppm in series [2] is at least 80%. Further, the pest or weed control at 200 ppm in series [3] was at least 80%.
